Data published in PMC8167039, “A Comparative Study of Human and Zebrafish Pregnane X Receptor Activities of Pesticides and Steroids Using In Vitro Reporter Gene Assays” (Frontiers in Endocrinology, 2021).
Where two headings read alike, the source gives them in different places.

Legend:
zfPXR = zfPXR (Danio rerio, UniProt A5WYG8); test: HG5LN Gal4-zfPXR luciferase reporter gene assay, agonism; type: cell-based, zebrafish; design: Emax: dose or concentration left out as unconfirmed; details: for zfPXR agonism Max: HG5LN-zfPXR, % of maximal induced by 1 µM clotrimazole, DMSO 28 ± 1.7; for effect on zfPXR transcriptional activity (in words): HG5LN Gal-zfPXR cells
Experimental: (§1) The cell lines used in this study are listed in Supplementary Table 3 . The HG5LN, HG5LN Gal4-hPXR and HG5LN Gal4-zfPXR cell lines were previously described ([19]). Briefly, HeLa cells stably transfected with the GAL4RE5-βGlobin-Luc-SVNeo plasmid (HG5LN cell line) ([15]). HG5LN cells were stably transfected with the pSG5-GAL4(DBD)-hPXR(LBD)-puro or pSG5-GAL4(DBD)-zfPXR(LBD)-puro plasmids.
(§2) HG5LN cells were cultured in Dulbecco’s Modified Eagle Medium: Nutrient Mixture F-12 (D-MEM/F-12) containing phenol red and 1 g/L glucose and supplemented with 5% fetal bovine serum, 100 units/mL of penicillin and 100 µg/mL of streptomycin supplemented with 1 mg/mL geneticin in a 5% CO2 humidified atmosphere at 37°C. HG5LN GAL4-hPXR and GAL4-zfPXR were cultured in the same culture medium supplemented with 0.5 µg/mL puromycin.
(§3) The ability of chemicals to modulate the hPXR and zfPXR was investigated in HG5LN, HG5LN-hPXR, HG5LN-zfPXR, and ZFL-zfPXR cell lines after exposure to serial dilutions of the compounds and measurement of luciferase activity. […] Briefly, cells were seeded in 96-well white opaque flat bottom microplates at 0.5 10^5 cells per well in culture medium. […] Cells were then exposed to a concentration range of the compounds by using an automated workstation (Biomek 3000, Beckman Coulter). The final concentration of DMSO in the well never exceeds 0.1% (v/v). After 16h of exposure, medium was removed and 50 µL of test medium containing 0.3 mM D-luciferin were added per well. After 5 min, the production of light was assessed in living cells using microplate reader (MicroBeta, PerkinElmer SAS, Courtabœuf, France).
(§4) In the transactivation assay, each compound was tested at various concentrations in three independent experiments at least. For each experiment, tests were performed in quadruplicates for each concentration, and data are expressed by means values with standard deviations. […] This allowed to determine EC50 and IC50 values of tested chemicals.

hPXR = target: T1, hPXR (Homo sapiens, UniProt O75469); test: HG5LN Gal4-hPXR luciferase reporter gene assay, agonism
T1 sequence (O75469 146-433 limits assumed): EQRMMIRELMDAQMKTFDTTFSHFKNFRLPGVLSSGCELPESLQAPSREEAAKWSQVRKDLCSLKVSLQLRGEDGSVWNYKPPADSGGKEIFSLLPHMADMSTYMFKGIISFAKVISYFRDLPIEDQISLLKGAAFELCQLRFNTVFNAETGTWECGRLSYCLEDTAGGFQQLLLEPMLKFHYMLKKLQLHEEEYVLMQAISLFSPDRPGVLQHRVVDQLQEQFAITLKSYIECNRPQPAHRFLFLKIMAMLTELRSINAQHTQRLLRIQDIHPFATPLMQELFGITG
Experimental: as §1, §2, §3, §4

[1] = HG5LN-zfPXR cells, 16h exposure, n.a. = not active, read-out: zfPXR agonism EC50
[2] = HG5LN-hPXR, maximal activity at 10 µM, % of maximal induced by 3 µM SR 12813, DMSO 19 ± 6
[3] = HG5LN, read-out: zfPXR agonism Max
[4] = read-out: hPXR agonism EC50, HG5LN-hPXR cells, 16h exposure, n.a. = not active
[5] = HG5LN-hPXR, compounds marked *, not tested above 3 µM (clotrimazole, SPA70: 1 µM), % of maximal induced by 3 µM SR 12813, DMSO 19 ± 6
[6] = compounds marked *, not tested above 3 µM (clotrimazole: 1 µM)

Sequence of zfPXR (A5WYG8 entry or part of it): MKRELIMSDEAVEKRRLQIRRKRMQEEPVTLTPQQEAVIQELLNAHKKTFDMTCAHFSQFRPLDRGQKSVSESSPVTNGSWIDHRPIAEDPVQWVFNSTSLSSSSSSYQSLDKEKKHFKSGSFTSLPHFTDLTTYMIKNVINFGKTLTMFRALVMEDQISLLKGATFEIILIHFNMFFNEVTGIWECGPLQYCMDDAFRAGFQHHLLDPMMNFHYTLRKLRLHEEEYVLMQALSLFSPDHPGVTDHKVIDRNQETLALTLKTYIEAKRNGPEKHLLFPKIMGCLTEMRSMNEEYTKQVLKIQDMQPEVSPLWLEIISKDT

| SMILES | EC50 (hPXR) [µM] | hPXR agonism Max (hPXR; [2]) [%] | EC50 (zfPXR) [µM] | other results |
| --- | --- | --- | --- | --- |
| C#C[C@]1(OC(C)=O)CC[C@H]2[C@@H]3CCC4=C[C@@H](OC(C)=O)CC[C@@H]4[C@H]3CC[C@@]21C [Etynodiol diacetate, reference compound] | – | – | – | EC50 (zfPXR; [1]): 0.32 ± 0.02 µM |
| O=S1OCC2C(CO1)C1(Cl)C(Cl)=C(Cl)C2(Cl)C1(Cl)Cl (centres unmarked) [Endosulfan] | 5.7 ± 0.4 | 72 | 11 ± 1.5 | Emax (zfPXR; [3]): 57% |
| ClC(Cl)=C(c1ccc(Cl)cc1)c1ccccc1Cl [2,4’-DDE] | – | 78 | – | EC50 (hPXR; [4]): 5.5 ± 0.4 µM; zfPXR agonism Max (zfPXR; maximal activity at 10 µM): 57% |
| CCc1cccc(CC)c1N(COC)C(=O)CCl [Alachlor] | 1.5 ± 0.4 | 76 | 0.67 ± 0.1 | Emax (zfPXR; [3]): 98% |
| C[C@@H]1C[C@H]2[C@@H]3CCC4=CC(=O)C=C[C@]4(C)[C@@]3(F)[C@@H](O)C[C@]2(C)[C@@]1(O)C(=O)CO [Dexamethasone, reference compound] | – | – | – | effect on hPXR transcriptional activity (in words) (hPXR): no effect; effect on zfPXR transcriptional activity (in words) (zfPXR): no effect; effect on zfPXR transcriptional activity (in words) (zfPXR; listed as dexamethasone): do not modulate |
| CCOc1ccc(NC(=O)OC(C)C)cc1OCC [Diethofencarb] | 19 ± 2.4 | – | – | hPXR agonism Max (hPXR; [5]): 45% |
| ClC1=C(Cl)C2(Cl)C3C(Cl)C=CC3C1(Cl)C2(Cl)Cl (centres unmarked) [Heptachlor] | – | 43 | 7.4 ± 1.8 | Emax (zfPXR; [3]): 44% |
| CC(=O)[C@@]1(O)CC[C@H]2[C@@H]3C[C@H](C)C4=CC(=O)CC[C@]4(C)[C@H]3CC[C@@]21C [Medroxyprogesterone, reference compound] | 18 ± 2.4 | 50 | – | – |
| CC(=O)O[C@]1(C(C)=O)CC[C@H]2[C@@H]3C=C(C)C4=CC(=O)CC[C@]4(C)[C@H]3CC[C@@]21C [Megestrol acetate, reference compound] | 19 ± 4.3 | – | – | – |
| C#C[C@]1(O)CC[C@H]2[C@@H]3[C@H](C)CC4=C(CCC(=O)C4)[C@H]3CC[C@@]21C [Tibolone, reference compound] | – | – | – | EC50 (zfPXR; [1]): 0.56 ± 0.04 µM |
| C#CC(C)(C)NC(=O)c1cc(Cl)cc(Cl)c1 [Propyzamide] | 22 ± 1.7 | 45 | – | – |
| C#C[C@]1(O)CC[C@H]2[C@@H]3CCC4=CC(=O)CC[C@@H]4[C@H]3C(=C)C[C@@]21CC [Etonogestrel, reference compound] | 24 ± 4.6 | – | – | EC50 (zfPXR; [1]): 2.3 ± 0.2 µM; Emax at 10 µM (zfPXR; [3]): 90% |
| ClC1=C(Cl)C2(Cl)C3C4CC(C5OC45)C3C1(Cl)C2(Cl)Cl (centres unmarked) [Endrin] | 6.9 ± 1.2 | – | 14 ± 1.2 | hPXR agonism Max (hPXR): 66% |
| CCCSP(=O)(OCC)SCCC [Ethoprophos] | – | 33 | – | Emax (zfPXR; [3]): 38% |
| CC(C)OC(=O)Nc1cccc(Cl)c1 [Chlorpropham] | 20 ± 8.6 | – | 22 ± 16 | – |
| C=CCOC(Cn1ccnc1)c1ccc(Cl)cc1Cl (centres unmarked) [Imazalil] | 10 ± 1.4 | – | 9.8 ± 2.6 | hPXR agonism Max (hPXR; [5]): 39% |
| ClC1=C(Cl)C2(Cl)C3C4C=CC(C4)C3C1(Cl)C2(Cl)Cl (centres unmarked) [Aldrin] | 7.6 ± 0.3 | 70 | 10 ± 4.5 | Emax (zfPXR; [3]): 65% |
| COC(=O)NC(=S)Nc1ccccc1NC(=S)NC(=O)OC [Thiophanate-methyl] | 35 ± 7.3 | 46 | – | – |
| O=C(Nc1ccccc1-c1ccc(Cl)cc1)c1cccnc1Cl [Boscalid] | 13 ± 1.1 | – | 58 ± 82 | Emax (zfPXR; [3]): 41% |
| O=C1C2(Cl)C3(Cl)C4(Cl)C(Cl)(Cl)C5(Cl)C3(Cl)C1(Cl)C5(Cl)C24Cl (centres unmarked) [Chlordecone] | – | – | – | hPXR agonism Max (hPXR; [5]): 46%; EC50 (hPXR; [4]): 19 ± 5.6 µM; EC50 (zfPXR; [1]): 75 ± 23 µM; zfPXR agonism Max (zfPXR; [6]): 32% |
| CCOP(=S)(OCC)Oc1nc(Cl)c(Cl)cc1Cl [Chlorpyriphos] | – | – | – | hPXR agonism Max (hPXR): 95%; EC50 (hPXR; [4]): 2.7 ± 0.4 µM; zfPXR agonism Max (zfPXR; [6]): 101% |
| CO[C@H]1/C=C/O[C@@]2(C)Oc3c(C)c(O)c4c(O)c(c(/C=N/N5CCN(C)CC5)c(O)c4c3C2=O)NC(=O)/C(C)=C\C=C\[C@H](C)[C@H](O)[C@@H](C)[C@@H](O)[C@@H](C)[C@H](OC(C)=O)[C@@H]1C [Rifampicin, reference compound] | – | – | – | effect on zfPXR transcriptional activity (in words) (zfPXR): do not modulate |
